Data on three molecules can be found in patent US10059655B2, “Lipids and lipid compositions for the delivery of active agents” (priority 2013, dated 2018).

Data set [1] concerns plasma Factor VII enzyme activity. Description: Factor VII Activity Assay after IV dosing of formulated Factor VII siRNA in mice. The format is in vivo, mouse. The conditions noted are these: 0.03 mpk, CD-1 mice, about 48 hours after injection. Here is the method: Female CD-1 mice were received from Harlan Labs and maintained on standard lab chow and water ad libitum. The animals weighed approximately 25 gr at time of dosing. Formulated Factor VII siRNA was administered as a single dose intravenously via the lateral tail vein. Approximately 48 hours after injection, the mice were euthanized by CO2 inhalation followed by exsanguination through the vena cava.
Plasma collected from injected mice was assayed for Factor VII enzyme activity using the Biophen FVII kit from Hyphen Biomedical (catalog number 221304). An assay standard curve was prepared using pooled plasma aliquots from the vehicle control animals. All samples were diluted to fall within the linear range of the standard curve and Factor VII activity relative to control plasma was reported.
Lipid nanoparticles comprising lipid compounds of formula (I) and the FVII siRNA duplex sequence listed above were tested in the Factor VII Activity Assay. The results of this assay are given in Table 3 4 below as a percent knock down of plasma Factor VII enzyme activity at a dose of 0.3 mg/kg and 0.03 mg/kg.

In data set [2] the test system is hFIX. Put plainly: Human Factor IX ELISA after IV injection of encapsulated hFIX mRNA. The format is in vivo. The note with it: 0.12 mpk, C57 mice, @ 24 h. Here is the method:
An sheep anti-human Factor IX antibody (Cat# FIX-EIA-C) from Enzyme Research Laboratories is coated on 384-well white microtiter plates overnight at a concentration of 5 ug/ml, then blocked for assay using KPL blocker (Cat#50-82-00). Then, plasma samples are diluted in a casein-based sample diluent and incubated on the plate with biological controls and a standard curve created from recombinant protein (Cat#HCIX-0040). The plate is then washed to remove unbound material. A biotinylated sheep anti-human Factor IX antibody (Cat# FIX-EIA-D) from Enzyme Research Laboratories is then added to the plate at 0.6 ug/ml to detect human Factor IX protein bound by the capture antibody. The plate is washed again and a streptavidin-conjugated horseradish peroxidase reagent (Cat#21140) diluted 1:1250, is incubated on the plate. A third wash step is performed and chemiluminescent reagents (Cat#1859678 & Cat#18596789) are combined and added to the plate and immediately read by a capable plate reader using all wavelengths and a 50 millisecond integration time. Unknown samples are interpolated off the human recombinant Factor IX standard curve.

Data set [3] relates to hLeptin. Put plainly: Human leptin in mouse plasma (ELISA) after subcutaneous injection of encapsulated leptin mRNA. It counts as in vivo. The note with it: C57 mice. Here is the method: Human leptin in mouse plasma was measured by ELISA. Antibodies purchased from the R&D Systems duoset (Cat# DY398E, part#840279 for capture antibody and part#840280 for detection antibody) were reconstituted using PBS and titered, again using PBS. The capture antibody was coated at 4 ug/ml in 30 ul/well on a white Nunc® Maxisorp 384 well plate (Cat#460372). After an overnight incubation at room temperature the capture antibody was aspirated and the plate blocked for 2 hours at room temperature with 90 ul/well of KPL milk blocker (Cat#50-82-00). Once the incubation was completed the plate was aspirated and recombinant standards and samples were added to the plate at 30 ul/well for 2 hours at 37° C. while shaking at 600 rpm. Sample/standard dilutions were made using casein sample diluent. Washing/aspiration 3 times with 100 ul/well followed, using Teknova plate wash solution (Cat# P1192). […] The plate was quickly read using a SpectramaxM5 plate reader with a 50 ms integration time. […]
Prior to subcutaneous injection, mouse body weights were recorded and diet weighted, with mice grouped according to their body weights. […]
On day 0, animals were weighed and sorted according to average body weight. ice were dosed at 9 AM and blood was taken at 9 AM on day 0. Blood was also taken at 9 AM on each of days 1 and 2 and assessed for leptin protein levels. Body weight and food intake were also recorded.
For orientation: In an ELISA, binding on a coated surface is turned into a signal by an enzyme label.

Data set [4] is described as follows: Percentage of encapsulated RNA and RNA concentration of replicon liposomes (Quant-iT RiboGreen). It counts as physicochemical. The conditions noted are these: for %E (% entrapment) 1st IM / Conc (Concentration of RNA) 1st IM: RSV-F replicon RNA LNP prepared for 1st immunization; for %E (% entrapment) 2nd IM / Conc (Concentration of RNA) 2nd IM: RSV-F replicon RNA LNP prepared for 2nd immunization. Here is the method:
RNA was encapsulated in liposomes made essentially by the method of Geall et al. (2012) PNAS vol. 109 (36): 14604-14609, Jeffs et al. (2005) Pharmaceutical Research 22 (3):362-372, and Maurer et al. (2001) Biophysical Journal, 80: 2310-2326 The liposomes were made of 10% DSPC (zwitterionic), 40% cationic lipid, 48% cholesterol and 2% PEG-conjugated DMG (2 kDa PEG). These proportions refer to the % moles in the total liposome.
Briefly, lipids were dissolved in ethanol (2 ml), a RNA replicon was dissolved in buffer (2 ml, 100 mM sodium citrate, pH 6) and these were mixed with 2 ml of buffer followed by 1 hour of equilibration. The mixture was then dialized overnight against 1×PBS. The resulting product contained liposomes, with ˜70-95% encapsulation efficiency. For in vitro and in vivo experiments formulations were diluted to the required RNA concentration with 1×PBS.
The percentage of encapsulated RNA and RNA concentration were determined by Quant-iT RiboGreen RNA reagent kit (Invitrogen), following manufacturer's instructions. The ribosomal RNA standard provided in the kit was used to generate a standard curve. Liposomes were diluted 10× or 100× in 1×TE buffer (from kit) before addition of the dye. Separately, liposomes were diluted 10× or 100× in 1×TE buffer containing 0.5% Triton X before addition of the dye (to disrupt the liposomes and thus to assay total RNA). Thereafter an equal amount of dye was added to each solution and then ˜180 μL of each solution after dye addition was loaded in duplicate into a 96 well tissue culture plate. The fluorescence (Ex 485 nm, Em 528 nm) was read on a microplate reader. All liposome formulations were dosed in vivo based on the encapsulated amount of RNA.
% entrapment (% E), Concentration of RNA (Conc), particle size measured by DLS, and polydispersity reported by DLS of LNPs prepared with different cationic lipids
A general note: In antiviral work, replicon cells carry a viral genome segment that copies itself.

Turning to `CCCCC/C=C\C/C=C\CCCCCCCC(=O)OCC(COC(=O)CCC(OCCCCCCCC)OCCCCCCCC)COC(=O)OCCCN(CC)CC` (centres unmarked) [Example 13, (9Z,12Z)-3-((4,4-bis(octyloxy)butanoyl)oxy)-2-((((3-(diethylamino)propoxy)carbonyl)oxy)methyl)propyl octadeca-9,12-dienoate], the “FVII knock-down (%) following IV injection of encapsulated siRNA” value in data set [1] turned out to be 97%/0.03 mpk. For the same molecule, in data set [2], the “Expression of protein following IV injection of encapsulated mRNA: hFIX” value worked out at 292.7 ng/mL.

Consider `CCCCC/C=C\C/C=C\CCCCCCCC(=O)OCC(COC(=O)CCCCCCC/C=C\C/C=C\CCCCC)COC(=O)C1(C)CCN(C)C1` (centres unmarked) [Example 1, (9Z,9′Z,12Z,12′Z)-2-(((1,3-dimethylpyrrolidine-3-carbonyl)oxy)methyl)propane-1,3-diyl bis(octadeca-9,12-dienoate)], for which the “FVII knock-down (%) following IV injection of encapsulated siRNA” value in data set [1] came out at 69%/0.03 mpk. In data set [2], the “Expression of protein following IV injection of encapsulated mRNA: hFIX” value was 147.7 ng/mL. In addition, in data set [3] (0.4 mpk), the “Expression of protein following SC injection of encapsulated mRNA: hLeptin” value worked out at 2.5 ng/mL. For the same molecule, in data set [4], the “%E (% entrapment) 1st IM” value stood at 96.21%, the “Conc (Concentration of RNA) 1st IM” value stood at 10352 ng/mL, the “%E (% entrapment) 2nd IM” value stood at 91.99% and the “Conc (Concentration of RNA) 2nd IM” value stood at 11279 ng/mL.

As to `CCCCC/C=C\C/C=C\CCCCCCCC(=O)OCC(COC(=O)CCC(OCCCCCCCC)OCCCCCCCC)COC(=O)OCC1CCCN(CC)C1` (centres unmarked) [Example 15, (9Z,12Z)-3-((4,4-bis(octyloxy)butanoyl)oxy)-2-(((((1-ethylpiperidin-3-yl)methoxy)carbonyl)oxy)methyl)propyl octadeca-9,12-dienoate], the “Expression of protein following SC injection of encapsulated mRNA: hLeptin” value in data set [3] (0.6 mpk) is 6.2 ng/mL. Also, in data set [4], the “%E (% entrapment) 1st IM” value is 94.26%, the “Conc (Concentration of RNA) 1st IM” value came to 10203 ng/mL, the “%E (% entrapment) 2nd IM” value is 96.64% and the “Conc (Concentration of RNA) 2nd IM” value was found to be 10091 ng/mL.
